The results in this text go back to patent US9447408B2, “Method of efficiently establishing induced pluripotent stem cells” (Kyoto University, priority 2010, dated 2016).

Experiment [1] deals with Mouse embryonic fibroblasts (MEFs). Kind of experiment: iPS cell establishment from Nanog-GFP reporter MEFs, 4 genes (Oct3/4, Sox2, Klf4, c-Myc) introduced, with p38 inhibitors. Type of experiment: cell-based. Particulars: for number of Nanog-GFP-positive colonies compared with physiological saline or DMSO: 10 μM inhibitor added on days 1 to 4 after the infection. On the procedure:
Mouse embryonic fibroblasts (MEFs) from a Nanog reporter mouse carrying Nanog-GFP—IRES-Puro^r [Okita K. et al, Nature 448, 313-317 (2007)] were transfected with four genes using a retrovirus to induce iPS cells.
Each retrovirus for reprogramming was prepared by transferring each of retroviral expression vectors (pMXs-Oct3/4, pMXs-Sox2, pMXs-Klf4, pMXs-cMyc:Cell, 126, 663-676 (2006)) to Plat-E cells (Morita, S. et al., Gene Ther. 7, 1063-1066) that had been seeded to a 6-well culture plate (Falcon) at 0.6×10^6 cells per well on the day before. The cells were cultured at 37° C. in the presence of 5% CO2 using DMEM/10% FCS [a culture broth prepared by adding 10% fetal calf serum to DMEM (Nacalai Tesque)]. To facilitate vector transfer, 4.5 μL of FuGene6 transfection reagent (Roche) was placed in 100 μL of Opti-MEM I Reduced-Serum Medium (Invitrogen), and the medium was allowed to stand at room temperature for 5 minutes. Subsequently, 1.5 μg of each expression vector was added, and the medium was allowed to further stand at room temperature for 15 minutes, after which they were added to the Plat-E culture broth. On day 2, the Plat-E supernatant was replaced with a fresh supply of the medium. On day 3, the culture supernatant was recovered and filtered through a 0.45 μm sterile filter (Whatman), and polybrene (Nacalai) was added at 4 μg/mL to yield a viral liquid.
Mouse embryonic fibroblasts (MEFs) were isolated from a fetal Nanog reporter mouse (13.5 days after fertilization). […] Not expressing the puromycin resistance gene as well, MEFs are susceptible to the antibiotic puromycin. As such, MEFs were seeded to a 6-well culture plate (Falcon), previously coated with 0.1% gelatin (Sigma), at 1.0×10^5 cells per well. DMEM/10% FCS served as the culture broth at 37° C. in the presence of 5% CO2. The following day, each retrovirus liquid was added, and this was followed by overnight infection to introduce the genes.
On day 1 after the viral infection, the medium for the MEFs was removed, and the cells were washed by the addition of 1 mL of PBS. After removing the PBS, 0.25% Trypsin/1 mM EDTA (Invitrogen) was added, and a reaction was carried out at 37° C. for about 5 minutes. After the cells floated up, the cells were suspended by the addition of an ES cell culture medium and 2500 cells were seeded to a 100 mm dish having mitomycin C-treated STO feeder cells seeded thereto previously. Cultivation was continued while replacing the ES cell culture medium with a fresh supply of the same medium every two days until a visible colony emerged.
To determine the effects of p38 inhibitors on the establishment of iPS cells by the introduction of the four mouse genes, cultivation was continued with the addition of 10 μM of the p38 inhibitor 5B202190, SB239063, or SB203580 (Calbiochem Company) to the medium per the schedule shown below. All these inhibitors were used in solution in DMSO. • 1. Oct3/4, Sox2, Klf4, c-Myc, each derived from mouse, saline • 2. Oct3/4, Sox2, Klf4, c-Myc, each derived from mouse, DMSO • 3. Oct3/4, Sox2, Klf4, c-Myc, each derived from mouse, SB202190 10 μM Day 1-4) • 4. Oct3/4, Sox2, Klf4, c-Myc, each derived from mouse, SB202190 10 μM (Day 1-8) • 5. Oct3/4, Sox2, Klf4, c-Myc, each derived from mouse, SB202190 10 μM (Day 9-16) • 6. Oct3/4, Sox2, Klf4, c-Myc, each derived from mouse, SB202190 10 μM (Day 1-16) • 7. Oct3/4, Sox2, Klf4, c-Myc, each derived from mouse, SB239063 10 μM (Day 1-4) • 8. Oct3/4, Sox2, Klf4, c-Myc, each derived from mouse, SB239063 10 μM (Day 1-8) • 9. Oct3/4, Sox2, Klf4, c-Myc, each derived from mouse, SB239063 10 μM (Day 9-16) • 10. Oct3/4, Sox2, Klf4, c-Myc, each derived from mouse, SB239063 10 μM (Day 1-16) • 11. Oct3/4, Sox2, Klf4, c-Myc, each derived from mouse, SB203580 10 μM (Day 1-4) • 12. Oct3/4, Sox2, Klf4, c-Myc, each derived from mouse, SB203580 10 μM (Day 1-8) • 13. Oct3/4, Sox2, Klf4, c-Myc, each derived from mouse, SB203580 10 μM (Day 9-16) • 14. […]

The test system of experiment [2] is Human dermal fibroblasts (Tig109 line). Kind of experiment: Human iPS cell colony formation, 4 genes introduced, various p38 inhibitors. Type of experiment: cell-based. Particulars: for number of iPS cell colonies on day 40 after the infection: no colonies in either control group. Here is the method: Human dermal fibroblasts (Tig109 line) were treated using a lentivirus (pLenti6/UbC-Slc7a1) according to the method described by Takahashi, K. et al. in Cell, 131: 861-872 (2007), to express the mouse ecotropic virus receptor Slc7a1 gene. These cells (2×10^5 cells/10 cm dish) were transfected with the four genes using a retrovirus according to the method described by Takahashi, K. et al. in Cell, 131: 861-872 (2007); each compound was added per the schedule shown below. • 1. Oct3/4, Sox2, Klf4, c-Myc, each derived from human, saline • 2. Oct3/4, Sox2, Klf4, c-Myc, each derived from human, DMSO (Day 5-35) • 3. Oct3/4, Sox2, Klf4, c-Myc, each derived from human, SB202190 10 μM (Day 5-20) • 4. Oct3/4, Sox2, Klf4, c-Myc, each derived from human, SB239063 10 μM (Day 5-20) • 5. Oct3/4, Sox2, Klf4, c-Myc, each derived from human, SB202190 10 μM (Day 21-35) • 6. Oct3/4, Sox2, Klf4, c-Myc, each derived from human, SB239063 10 μM (Day 21-35) • 7. Oct3/4, Sox2, Klf4, c-Myc, each derived from human, SB202190 10 μM (Day 5-35) • 8. Oct3/4, Sox2, Klf4, c-Myc, each derived from human, SB239063 10 μM (Day 5-35) On days 24, 32, and 40 after the infection, iPS cell colonies were counted. When the four factors (Oct3/4, Sox2, Klf4, C-Myc) were combined with SB239063 added on days 5 to 20 after the infection, the number of human iPS cell colonies increased on day 24 after the infection.

`Oc1ccc(-c2nc(-c3ccc(F)cc3)c(-c3ccncc3)[nH]2)cc1` [SB202190, 4-(4-fluorophenyl)-2-(4-hydroxyphenyl)-5-(4-pyridyl)imidazole]: in experiment [1], the “number of Nanog-GFP-positive colonies compared with physiological saline or DMSO” value is recorded as “increased”. In experiment [2] (10 μM inhibitor), the “number of iPS cell colonies on day 32 after the infection” value is listed as “capable of increasing the number of iPS cell colonies” and the “number of iPS cell colonies on day 40 after the infection” value was “increased remarkably”. In experiment [2] (10 μM, Day 21-35), the “effect on iPS cell colony number on day 32, inhibitor added day 21 to day 35” value is “remarkable effects”.

Regarding `COc1nccc(-c2c(-c3ccc(F)cc3)ncn2[C@H]2CC[C@H](O)CC2)n1` [SB239063, trans-1-(4-Hydroxycyclohexyl)-4-(4-fluorophenyl)-5-(2-methoxypyrimidin-4-yl)imidazole], the “number of Nanog-GFP-positive colonies compared with physiological saline or DMSO” value in experiment [1] is reported as “increased”. Also, in experiment [1] (10 μM inhibitor on days 1 to 4, counted day 28), the “effect on colony count when measured on day 28 after the infection” value was “remarkable”. Moreover, in experiment [1] (10 μM inhibitor on days 1 to 4 after the infection, FIG. 1), the “colony count compared with cells treated with physiological saline or DMSO” value is “tended to increase”. In addition, the “number of human iPS cell colonies on day 24 after the infection” value in experiment [2] (10 μM added on days 5 to 20) is “increased”. In addition, in experiment [2] (10 μM inhibitor), the “number of iPS cell colonies on day 40 after the infection” value was “two”.
